We go through eleven compounds from ChEMBL document CHEMBL4004820 (J Med Chem, 2017).

Data set [1] can be described thus: Antiviral activity against Influenza A virus (A/WSN/1933(H1N1)) expressing wild-type M2 proton channel infected in MDCK cells assessed as reduction in cytopathic effect after 48 hrs by crystal violet staining-based microscopic analysis. Format: functional, cell-based.
The next data set deals with MDCK. The experiment in a line: Cytotoxicity against MDCK cells measured after 72 hrs et staining-based microscopic analysis. Format: cell-based, Canis lupus familiaris. The note with it: dog.
Data set [2] relates to Influenza A virus (A/Udorn/307/1972(H3N2)).
Data set [3] shares this test system. The source holds these as a separate data set.
The test system is the same in data set [4]. The source holds these as a separate data set.
A short description of data set [5]: Binding affinity to Influenza virus A (A/Udorn/72 (H3N2)) M2 protein at pH 7.5 in presence of KCl by electrophysiology method. On the set-up: species or system Influenza A virus (A/udorn/1972(H3N2)).
In data set [6] the test system is Influenza A virus (A/California/07/2009(H1N1)). Put plainly: Inhibition of full-length Influenza A virus (A/California/07/2009(H1N1)) M2 proton channel expressed in HEK cells assessed as inhibition of low-pH-dependent inward proton currents at 100 uM and pH 5.5 measured after 3 mins in presence of CaCl2 by electrophysiology method relative to control. Format: cell-based.

Data set [7] shares this test system. Put plainly: Inhibition of full-length Influenza A virus (A/California/07/2009(H1N1)) M2 proton channel expressed in HEK cells assessed as inhibition of low-pH-dependent inward proton currents at 100 uM and pH 5.5 measured after 30 mins in presence of CaCl2 by electrophysiology method relative to control. Format: cell-based.

As a reminder, the IC50 is the point on the concentration scale where inhibition reaches its midpoint. `CCOC(=O)C1=C[C@@H](OC(CC)CC)[C@H](NC(C)=O)[C@@H](N)C1` [OSELTAMIVIR]: the IC50 in data set [1] (Influenza A virus, MDCK, 48 h, read-out: IC50) worked out at 0.02 µM.

In general, CC50 refers to the concentration that lowers cell viability or growth by half. On to `NC1(C23CC4CC(CC(C4)C2)C3)CCCCC1`, for which the IC50 entry in data set [1] is “Not Active”. Moreover, the half-maximal cytotoxic concentration (CC50) in the data set on MDCK is greater than 100 µM.

`CC1(N)C2CC3CC(C2)CC1C3` (stereo not drawn): in data set [1], the IC50 entry is “Not Active”. This compound also showed a CC50 in the data set with MDCK of 25.6 µM. The compound also yielded a -TdeltaS in data set [2] of -1.51 kcal/mol.

What is called Kd is the concentration at which binding is half-saturated. As for `NC12CC3CC(CC(C3)C1)C2` [AMANTADINE], the Activity in data set [3] came to 32 degree; in data set [4] it was 22 degree. Also, the IC50 result in data set [1] is “Not Active”. Further, in the data set with MDCK, the CC50 is greater than 100 µM. Further, the Kd in data set [5] was 9 µM. Also, in data set [2], the -TdeltaS is -1.11 kcal/mol.

As for `NC1C2CC3CC(C2)CC1C3` (stereo not drawn), the IC50 result in data set [1] is “Not Active”. Further, the CC50 in the data set on MDCK was 70.5 µM. The same compound returned a -TdeltaS in data set [2] of -0.93 kcal/mol.

On to `CCC1(N)C2CC3CC(C2)CC1C3` (stereo not drawn), for which the IC50 result in data set [1] is “Not Active”. Besides, the CC50 in the data set on MDCK is greater than 100 µM. In data set [2], the -TdeltaS is -1.38 kcal/mol.

With `CCCC1(N)C2CC3CC(C2)CC1C3` (stereo not drawn), the values for the Activity in data set [3] and in data set [4] were 32 degree and 22 degree, respectively. Also, in data set [1], the IC50 entry is “Not Active”. The CC50 in the data set with MDCK is greater than 100 µM. The -TdeltaS in data set [2] was -0.932 kcal/mol.

As a reminder, the inhibition is how much of the control response was suppressed. As for `C1CNC2(C1)C1CC3CC(C1)CC2C3` (stereo not drawn), the figures for the inhibition in data set [6] and in data set [7] were 4% and 5%, respectively. The IC50 result in data set [1] is on record as “Not Active”. In the data set with MDCK, this compound showed a CC50 greater than 100 µM. The compound further gave a -TdeltaS in data set [2] of -3.97 kcal/mol.

For the compound `CN1CCCC12C1CC3CC(C1)CC2C3` (stereo not drawn), the IC50 result in data set [1] was “Not Active”. In the data set with MDCK, this compound showed a CC50 greater than 100 µM. The same compound registered a -TdeltaS in data set [2] of -4.46 kcal/mol.

Take `CC12CC3CC(CC(C3)C13CCCN3)C2` (stereo not drawn): the IC50 result in data set [1] was “Not Active”. In the data set on MDCK, the CC50 is greater than 100 µM. Also, the -TdeltaS in data set [2] is -3 kcal/mol.

In the case of `NC1(C23CC4CC(CC(C4)C2)C3)CCCC1`, the inhibition in data set [6] and in data set [7] was 4% each time. Further, the IC50 result in data set [1] was “Not Active”. This compound came in with a CC50 in the data set with MDCK greater than 100 µM.
